US20260123631A1, “NATURAL PORPHIN SALT AND USE THEREOF AS PLANT GROWTH REGULATOR AND PLANT IMMUNITY INDUCER” (NANJING BOSTEC BIOLOGICAL ENGINEERING CO., LTD, priority 2022, published 2026)

Columns and labels:
[1] = test system: Phytophthora capsici LT263; test: Inducing resistance of Nicotiana benthamiana leaves to phytophthora blight; format: in vivo; settings: inoculated on day 7 and day 10, read 36 h after inoculation
Protocol: At 36 h after the inoculation, results were observed.

mosaic virus = test: Controlling diseases in tobacco by spraying; format: in vivo, tobacco (Yunyan 87); settings: 30 L/mu
Description: For each treatment, 4 plots relatively scattered were selected from the field, with each plot of 50 m^2. An agent was sprayed twice around May 28 and June 4 during a root-spreading stage (12 leaves to 14 leaves) after tobacco transplanting, respectively. A same spraying volume (30 L/mu) was adopted for each treatment. During the spraying operation, each leaf surface should be sprayed evenly without dead corners left.
On July 15, tobacco plants in all treatment plots were surveyed. An incidence grading survey was conducted according to the Grade and investigation method of tobacco diseases and insect pests GB/T23222-2008, and an incidence rate and a disease index were counted for each treatment plot.

rice [2] = test: Alleviation of herbicide damage in rice; format: in vivo, rice (Jinjing 818); settings: 0.25 ppm
Protocol: Method: A treatment plot of 1.5 mu and a control plot of 1.5 mu were set. The sample was sprayed twice after the herbicide damage occurred in rice sprayed with a herbicide. Clear water was adopted as a blank control. Specific operations were as follows:
On June 20 when weeds had 3 leaves and rice had 3 to 3.5 leaves, the treatment plot and the control plot both were treated with 4% imazamox at 200 mL/mu and 10% pyribenzoxim at 40 mL/mu by a stem and leaf spray method, with 30 kg of water per mu. One week later, a weeding effect was prominent, but rice underwent obvious pesticide damage. 10 d after the herbicide application (June 30), the treatment plot was sprayed with the sample at 7.5 mg/mu by a stem and leaf spray method, with a solution of 30 L per mu. The control plot was sprayed with clear water. At an inflorescence emergence stage of rice (August 25), the spraying was conducted once again by the same method.

tobacco = test: Spraying on tobacco to improve a yield; format: in vivo, tobacco (Yunyan 87); settings: 45 L per mu
Protocol: Method: Four spraying concentrations were set. For each treatment, four plots were adopted, with each plot of 20 m^2. […] During harvesting, sampling was conducted to count a plant height, a leaf length, a leaf width, and a single-leaf weight. All tobacco leaves of the plots were baked into flue-cured tobacco. […]

rice [3] = test: Rice yield in the sheath blight field experiment; format: in vivo, rice (Nanjing 9108); settings: 3.0 mg/mu sprayed 3 times
Protocol: A test sample was dissolved, diluted, thoroughly stirred, and then applied, with an application area of 3 mu for each treatment. The harvesting was conducted on Nov. 8, 2021. On the eve of harvesting, the yield composition and structure were investigated. Then a yield per mu was measured.

[4] = Stability of sample solutions in the dark/under light; format: physicochemical
Outline: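 Salt in water, or acidic reference in 30–50% aqueous ethanol, at about 10 ppm; UV absorbance scanned 200–800 nm at 0, 1, 2, 3 h, stored at 25° C dark or under 30,000 lux light. Relative content = max-peak absorbance at each time divided by 0 h value (100%).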

[5] = 7.5 mg/mu sprayed twice after imazamox/pyribenzoxim damage

sodium iron chlorin [Example 21]
lesion area after LT263 inoculation compared with DDW ([1]; 2.0 ppm injected into leaves): significantly reduce a lesion area
lesion area after LT263 inoculation compared with DDW ([1]; 20.0 ppm injected into leaves): significantly reduce a lesion area
Disease index (mosaic virus; 0.05 ppm sprayed twice): 8.94
Relative control effect (mosaic virus; 0.05 ppm sprayed twice): 65.48%
Disease index (mosaic virus; 0.10 ppm sprayed twice): 8.77
Relative control effect (mosaic virus; 0.10 ppm sprayed twice): 66.13%
Disease index (mosaic virus; 0.20 ppm sprayed twice): 8.15
Relative control effect (mosaic virus; 0.20 ppm sprayed twice): 71.00%
Actual yield (rice [2]; [5]): 675 kg/mu
Ear number/mu (rice [2]; [5]): 275945.5
Filled grain number/ear (rice [2]; [5]): 97.64
Grain number/ear (rice [2]; [5]): 104.5
Seed set rate (rice [2]; [5]): 0.9344
Theoretical yield (rice [2]; [5]): 816.8 kg/mu
Thousand-grain weight (rice [2]; [5]): 30.30 g
increase of yield per mu (rice [2]; 7.5 mg/mu sprayed twice, versus clear water): ≥ 22%
Leaf length (tobacco; 0.05 ppm sprayed twice): 76.0 cm
Leaf width (tobacco; 0.05 ppm sprayed twice): 28.5 cm
Plant height (tobacco; 0.05 ppm sprayed twice): 114.2 cm
Weight/leaf (tobacco; 0.05 ppm sprayed twice): 8.4 g
Yield (tobacco; 0.05 ppm sprayed twice): 133.75 kg/mu
Yield increase rate (tobacco; 0.05 ppm sprayed twice): 9.4%
Leaf length (tobacco; 0.10 ppm sprayed twice): 77.2 cm
Leaf width (tobacco; 0.10 ppm sprayed twice): 28.9 cm
Plant height (tobacco; 0.10 ppm sprayed twice): 116.7 cm
Weight/leaf (tobacco; 0.10 ppm sprayed twice): 8.7 g
Yield (tobacco; 0.10 ppm sprayed twice): 138.67 kg/mu
Yield increase rate (tobacco; 0.10 ppm sprayed twice): 13.5%
Leaf length (tobacco; 0.20 ppm sprayed twice): 75.6 cm
Leaf width (tobacco; 0.20 ppm sprayed twice): 28.4 cm
Plant height (tobacco; 0.20 ppm sprayed twice): 114.3 cm
Weight/leaf (tobacco; 0.20 ppm sprayed twice): 8.4 g
Yield (tobacco; 0.20 ppm sprayed twice): 133.59 kg/mu
Yield increase rate (tobacco; 0.20 ppm sprayed twice): 9.3%
Leaf length (tobacco; 0.30 ppm sprayed twice): 74.7 cm
Leaf width (tobacco; 0.30 ppm sprayed twice): 28 cm
Plant height (tobacco; 0.30 ppm sprayed twice): 114.5 cm
Weight/leaf (tobacco; 0.30 ppm sprayed twice): 8.3 g
Yield (tobacco; 0.30 ppm sprayed twice): 132.54 kg/mu
Yield increase rate (tobacco; 0.30 ppm sprayed twice): 8.5%
Ear number per mu (rice [3]): 26.14 10,000
Filled grain number per ear (rice [3]): 99.93
Thousand-grain weight (rice [3]): 27.00 g
Yield (rice [3]): 705.38 kg/mu
Yield increase rate (rice [3]; versus clear water): 11.46%
Relative content ([4]; in the dark, 25° C., 0 h): 100.0%
Relative content ([4]; in the dark, 25° C., 1 h): 99.51%
Relative content ([4]; in the dark, 25° C., 2 h): 99.60%
Relative content ([4]; in the dark, 25° C., 3 h): 99.43%
Relative content ([4]; under light 30,000 lux, 0 h): 100.00%
Relative content ([4]; under light 30,000 lux, 1 h, salts in water, acidic reference in 30% to 50% ethanol): 69.35%
Relative content ([4]; under light 30,000 lux, 2 h, salts in water, acidic reference in 30% to 50% ethanol): 59.05%
Relative content ([4]; under light 30,000 lux, 3 h, salts in water, acidic reference in 30% to 50% ethanol): 54.02%
